Converted amounts (≈) assume the structure as drawn.
How the values were obtained:
[1] = Heat-up/cool-down crystallisation screen of sorbate salt (Example 10, Experiments 5, 8); assay type: physicochemical; settings: for Observations (t = 1 @ T = 20° C.): Tabernanthalog sorbate salt (Form A) crystallised from binary solvents, solvent A 3.0 vol plus solvent B, one pair per sample; for XRPD (centrifuged, wet): wet pellet
Method: The relevant solvent (0.225 ml, 3.0 vol) was added to the appropriate vial and the suspensions were stirred and warmed to temperature. If dissolution was not observed, further solvent was added until the solute dissolved, or aliquots of a secondary co-solvent were added to complete dissolution. Once dissolved, the solutions were left to cool down and stand undisturbed under sub-ambient conditions for several days. After crystallisation was judged complete, the products were isolated by centrifugation and the pellets were dried at 40° C. under reduced pressure. Products from the crystallisation (wet and dry) were initially analysed by XRPD (9-minute method), further analyses of certain products were performed by ^1H NMR, DSC and TGA, if the diffraction pattern indicated differences.

[2] = Solubility determinations in SIF buffers FaSSIF, FeSSIF, FaSSGF (Example 8, Experiment 5); settings: for Tabernanthalog RRT = 1.00 (trended HPLC data, chemical purity): tabernanthalog sorbate salt, 37° C.
Method: The temperature was maintained at 37° C. for 24 h. […] The suspensions were sampled at the relevant time points and centrifuged. The centrifuged pellets, obtained at the time points were analysed by XRPD as a wet pellet and dried, for evidence of form change.
The temperature was maintained at 37° C. for 24 h.
The suspension was sampled at the relevant time points and centrifuged. […] The centrifuged pellets, obtained at the time points were analyzed by XRPD as a wet pellet and dried, for evidence of form change.

[3] = Experiment 5, heat-up/cool-down crystallisation from binary solvents
[4] = 37 °C, pH 1.6, fassgf or other biorelevant, thermodynamic from solid
[5] = 37 °C, pH 5, fessif, thermodynamic from solid
[6] = 37 °C, pH 6.5, fassif, thermodynamic from solid

C/C=C/C=C/C(=O)O.COc1ccc2c3c([nH]c2c1)CCN(C)CC3 [Experiment 5-Sample P]
Observations (t = 1 @ T = 20° C.) ([1]; Experiment 5): Partial | XRPD (oven dried @ 40° C., 20 h) [1, 3]: Form A | XRPD (centrifuged, wet) [1, 3]: Form A

C/C=C/C=C/C(=O)O.COc1ccc2c3c([nH]c2c1)CCN(C)CC3 [Sample 5-L4]
Tabernanthalog RRT = 1.00 (trended HPLC data, chemical purity) ([2]; t = 3 h in FaSSGF): 99.36

C/C=C/C=C/C(=O)O.COc1ccc2c3c([nH]c2c1)CCN(C)CC3 [Experiment 5-Sample M]
Observations (t = 1 @ T = 20° C.) ([1]; Experiment 5): Liquid | XRPD (oven dried @ 40° C., 20 h) [1, 3]: Form A | XRPD (centrifuged, wet) [1, 3]: Form A

COc1ccc2c3c([nH]c2c1)CCN(C)CC3 [Tabernanthalog• Sorbate]
solubility at 1 h [2, 4]: 21.9 mg/mL (≈ 95 mM) | solubility at 3 h [2, 4]: 29.8 mg/mL (≈ 130 mM) | solubility at 6 h [2, 4]: 30.3 mg/mL (≈ 131 mM) | solubility at 24 h [2, 4]: 29.9 mg/mL (≈ 130 mM) | solubility at 1 h [2, 5]: 27.2 mg/mL (≈ 118 mM) | solubility at 3 h [2, 5]: > 30 mg/mL | solubility at 6 h [2, 5]: > 30 mg/mL | solubility at 1 h [2, 6]: > 30 mg/mL | solubility at 3 h [2, 6]: > 30 mg/mL | solubility at 6 h [2, 6]: > 30 mg/mL | XRPD (dried) ([2]; FaSSGF (pH 1.6), t = 1 h @37° C., suspended solid, dried pellet): Sorbic acid | XRPD (wet) ([2]; FaSSGF (pH 1.6), t = 1 h @37° C., suspended solid, wet pellet): Sorbic acid

C/C=C/C=C/C(=O)O.COc1ccc2c3c([nH]c2c1)CCN(C)CC3 [Sample 5-L10]
Tabernanthalog RRT = 1.00 (trended HPLC data, chemical purity) ([2]; t = 24 h in FaSSGF): 99.33

C/C=C/C=C/C(=O)O.COc1ccc2c3c([nH]c2c1)CCN(C)CC3 [Sample 5-L1]
Tabernanthalog RRT = 1.00 (trended HPLC data, chemical purity) ([2]; t = 1 h in FaSSGF): 99.52

C/C=C/C=C/C(=O)O.COc1ccc2c3c([nH]c2c1)CCN(C)CC3 [Experiment 5-Sample I]
Observations (t = 1 @ T = 20° C.) ([1]; Experiment 5): Liquid | XRPD (oven dried @ 40° C., 20 h) [1, 3]: Form A | XRPD (centrifuged, wet) [1, 3]: Form A

C/C=C/C=C/C(=O)O.COc1ccc2c3c([nH]c2c1)CCN(C)CC3 [Experiment 5-Sample O]
Observations (t = 1 @ T = 20° C.) ([1]; Experiment 5): Liquid | XRPD (oven dried @ 40° C., 20 h) [1, 3]: Form A | XRPD (centrifuged, wet) [1, 3]: Form A

CC=CC=CC(=O)O.COc1ccc2c3c([nH]c2c1)CCN(C)CC3 [Experiment 8-Sample A]
XRPD (centrifuged, wet) ([1]; Experiment 8, repeat of HUCD crystallisations aiming at Pattern #1 (water) and Pattern #6 (heptane/ethyl formate)): Pattern #1

C/C=C/C=C/C(=O)O.COc1ccc2c3c([nH]c2c1)CCN(C)CC3 [Experiment 5-Sample C]
Observations (t = 1 @ T = 20° C.) ([1]; Experiment 5): Solid | XRPD (oven dried @ 40° C., 20 h) [1, 3]: Form A | XRPD (centrifuged, wet) [1, 3]: Form A

C/C=C/C=C/C(=O)O.COc1ccc2c3c([nH]c2c1)CCN(C)CC3 [Experiment 5-Sample N]
Observations (t = 1 @ T = 20° C.) ([1]; Experiment 5): Partial | XRPD (oven dried @ 40° C., 20 h) [1, 3]: Form A | XRPD (centrifuged, wet) [1, 3]: Form A

C/C=C/C=C/C(=O)O.COc1ccc2c3c([nH]c2c1)CCN(C)CC3 [Experiment 5-Sample G]
Observations (t = 1 @ T = 20° C.) ([1]; Experiment 5): Partial | XRPD (oven dried @ 40° C., 20 h) [1, 3]: Form A | XRPD (centrifuged, wet) [1, 3]: Pattern #6

CC=CC=CC(=O)O.COc1ccc2c3c([nH]c2c1)CCN(C)CC3 [Experiment 5-Sample K]
Observations (t = 1 @ T = 20° C.) ([1]; Experiment 5): Partial | XRPD (oven dried @ 40° C., 20 h) [1, 3]: Form A | XRPD (centrifuged, wet) [1, 3]: Form A

C/C=C/C=C/C(=O)O.COc1ccc2c3c([nH]c2c1)CCN(C)CC3 [Experiment 5-Sample L]
Observations (t = 1 @ T = 20° C.) ([1]; Experiment 5): Partial | XRPD (oven dried @ 40° C., 20 h) [1, 3]: Form A | XRPD (centrifuged, wet) [1, 3]: Form A
